Measurements from patent US8093383B2, “P70 S6 kinase inhibitors” (Eli Lilly and Company, priority 2007, dated 2012).
Where a name gives a salt, the structure may show the parent alone. Read-outs that look alike come from different tables or passages of the source. Marks after values point to notes of the source that are not given here. One block for each compound: values may come before it.

Legend:
P70 S6 kinase (T412E) = target: T1, P70 S6 kinase (T412E) (Homo sapiens, UniProt P23443, T412E); test: Inhibition of p70S6 Kinase; format: biochemical; settings: 25 μM ATP, 5 nM enzyme, relative IC50
T1 construct: purchased Upstate USA, Inc. (Charlottesville, Va.)
T1 sequence (P23443 whole entry T412E): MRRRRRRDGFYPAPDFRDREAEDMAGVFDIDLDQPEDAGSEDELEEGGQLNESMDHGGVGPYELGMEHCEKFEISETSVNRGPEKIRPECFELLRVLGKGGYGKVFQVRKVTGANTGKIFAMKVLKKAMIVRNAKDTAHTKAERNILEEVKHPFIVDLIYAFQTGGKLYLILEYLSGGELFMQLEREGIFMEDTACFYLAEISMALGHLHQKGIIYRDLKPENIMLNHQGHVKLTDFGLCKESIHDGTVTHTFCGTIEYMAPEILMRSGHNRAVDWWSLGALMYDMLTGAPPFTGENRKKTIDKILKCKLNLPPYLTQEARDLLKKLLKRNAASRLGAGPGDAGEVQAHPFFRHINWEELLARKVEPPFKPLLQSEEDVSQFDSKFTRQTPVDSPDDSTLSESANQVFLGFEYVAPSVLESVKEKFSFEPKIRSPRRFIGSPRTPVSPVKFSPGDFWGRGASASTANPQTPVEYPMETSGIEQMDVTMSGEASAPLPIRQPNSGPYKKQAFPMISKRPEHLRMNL
Protocol: P70 S6 kinase (T412E) from Upstate USA, Inc. (Charlottesville, Va.) is preincubated with 10 concentrations of compound in a 15 μL volume for 30 min at room temperature in 96-well plates. PKA, PKC, MAPKAP-K1 Substrate from AnaSpec (San Jose, Calif.) and gamma ^33P-ATP from PerkinElmer (Waltham, Mass.) is added to initiate the reaction which is allowed to proceed for 60 minutes at room temperature in a final 25 μL volume under the following conditions: 10 mM HEPES pH 7.5, 10 mM MgCl2, 1.0 mM DTT, 0.082 mM EGTA, 0.005% TRITON X-100™, 25 μM, 25 μM ATP, 40 μCi/mL, 4 μM substrate, and 5 nM enzyme. Reactions are terminated with 75 μL 10% H3PO4 and 85 μL of quenched reaction mix is transferred to a phosphocellulose filter plate (Millipore #MAPHN0B50) and washed with 0.5% H3PO4 using a vacuum manifold. 100 μL of Microscint 20 (Packard #60113621) is added to each well and plates with liner are counted using a Wallac Beta Counter. Relative IC50 values are calculated by non-linear four parameter fitting.

A549 = test: Cell assay (Alamar Blue, 72 hours) A549; format: cell-based; settings: Homo sapiens
Protocol: (§1) Cells are maintained, then typsinized and suspended in Dulbecco's modified Eagle's medium (DMEM_containing 10% fetal bovine serum (FBS), 25 mM 4-(2-hydroxyethyl)-1-piperazineethanesulfonic acid (HEPES), 1.0 mM Sodium Pyruvate and 0.1 mM Non Essential Amino Acids (NEAA). 1×10^3 HCT116 and 2×10^3 Cells may be seeded in 50 μL in 96 well plates and incubated in 5% CO2 at 37° C. overnight. Compounds are prepared at desired starting concentrations and serial diluted in DMSO. 4 μL of diluted compounds are transferred in 1 mL 10% FBS DMEM to make up 2× concentrations as added 50 μL to the 50 μL in the presence of cells for dosing. The plates are incubated at 37° C. in 5% CO2 for 72 hours. At the end of incubation period, 10 μL Alamar Blue is added and after 2 hours reaction the measurement is determined in CytoFluor at 530 nm excitation, 580 nm emission and Gain 45. The following compounds were tested in the following cell lines essentially as described above.

U87MG = test: Cell assay (Alamar Blue, 72 hours) U87MG; format: cell-based; settings: Homo sapiens, U-87 MG
Protocol: as §1

[1] = test system: HUVEC / neo NHDF co-culture cord formation; test: Angiogenesis Cord Formation Assay; format: cell-based; settings: Homo sapiens, 288 h
Protocol: Human neonatal dermal fibroblast cells (neo NHDF) are seeded into Parkard 96 well plate on the first day, and incubated in the 37° C. and 5% CO2 incubator. Human umbilical vein endothelial cells (HUVEC) are then plated on the top of neo NHDF cells. Starting the third day, the co-culture is treated with eight-dose series of the test compound (starting with 20 μM, 1:3 serial dilution) in the presence of 20 ng/mL vascular endothelial growth factor (VEGF). The compound and VEGF are replenished every two to three days. The assay is conducted over a 12 day period. Cells are fixed by cold 70% ethanol for 30 minutes on the 12th day and processed for anti human CD31 immunofluorescence. Cultures are incubated with mouse anti human CD31 antibody and then stained by goat anti mouse alexa 488 secondary antibody. Cells are also stained by Hoechst to visualize the nucleus. After the staining, the cord formation is captured and quantified using Cellomics Arrayscan® VTI high content image analysis platform adopting the tube formation BioApplication. Two parameters, the cord area and angiogenesis index, are used to calculate the relative potency of the test compound in this angiogenesis assay. The compounds of Examples 5 and 10 were tested and analyzed essentially as described above.

p70 S6K = target: T2, p70 S6K (Homo sapiens, UniProt P23443); test: Determination of p70 S6K In Vivo Target Inhibition (HCT 116); parameters: species or system athymic nude mice; settings: HCT 116 xenograft, PO; potency based on plasma exposure; phosphorylation of S6RP serine 240/244
T2 construct: endogenous in cells; host or cells: HCT 116 human colon carcinoma xenograft tumours in athymic nude mice
T2 sequence (P23443 whole entry): as the sequence (P23443 whole entry T412E) above, with E412T counted along it
Protocol: HCT 116 human colon carcinoma cells* (5×10^6) are subcutaneously implanted into the flank of athymic nude mice in 0.2 mL of matrigel. Two weeks post-implantation, mice are dosed PO according to a time course, single dose/single time point, or dose response protocol for the determination of TMED50 (threshold minimum effective dose). Tumors are flash frozen at harvest and blood is collected for the determination of parent compound plasma exposure and the calculation of TMEC50 (threshold minimum effective concentration) in the case of dose response studies. Tumors or tissues are homogenized in XY Lysis buffer (10 μg/mL Leupeptin, 10 μg/mL Trypsin-Chymotrypsin Inhibitor, 10 μg/mL Tosyl phenylalanyl chloromethyl ketone (TPCK), 10 μg/mL Aprotinin, 60 mM Beta-Glycerol Phosphate, 1% Triton X100, 25 mM Tris pH 7.5, 2.5 mM Pyrophosphate, 150 mM NaCl, 2 mM p-tosyl-L-arginine methyl ester (TAME), 15 mM para-nitrophenyl phosphate (pNPP), 5 mM Benzamidine, 1 mM Na Vanadate, 10 mM NaF, 50 μg/mL phenylmethane sulofnyl fluoride (PMSF), 1 mM DTT, 15 mM EDTA pH 8.0, 5 mM EGTA pH 8.0, 1 μM Microcystin, 1 μM Okadaic Acid, and 1 Roche Complete protease inhibitor mini-tablet per 10 mL) using Lysing Matrix A tubes (MP Biomedicals, Solon, Ohio, cat# 6910-500) and a BIO101 Thermo Savant Fast Prep FP12. Lysates are aliquoted and either assayed immediately or stored at −80° C. for later testing. In Vivo Target Inhibition of p70 S6K is measured utilizing Meso Scale Discovery (Gaithersburg, Md.) ELISA technology to assess effects of the compound on phosphorylation of the serine 240/244 site of the downstream effector S6RP. Phosphorylation of p70 S6K(T389) and Akt(S473) is also assessed using this technology in a multiplex format. In summary, 20 μg of lysate is added to a carbon electrode 96-well plate pre-spotted with the appropriate capture antibodies. The protein of interest is probed using a ruthenium labeled detection antibody. Upon the passage of current over the electrode in the presence of read buffer containing the co-reactant TPA, electro-chemiluminescence results in the generation of light which is quantified and recorded using the MSD Sector 6000 instrument. For each study, percent inhibitions are calculated relative to the vehicle control group and ANOVA analysis is performed using the JMP software package for the determination of statistical significance. The following compounds were tested essentially as described above and have the following potencies based on plasma exposure.

[2] = test system: HCT 116 human colon carcinoma cells; test: Determination of p70 S6K In Vivo Efficacy (HCT 116 xenograft tumor growth); parameters: species or system athymic nude mice
Protocol: HCT 116 human colon carcinoma cells (5×10^6) are subcutaneously implanted into the flank of athymic nude mice in 0.2 mL of matrigel. One week post-implantation, mice are dosed PO according to the pharmacokinetics and the pharmacodynamics of the molecule to maintain 30-50% or 60-90% pS6 Inhibition over a 24 hr period. Dosing is continued for at least 21 days. Tumor volumes are measured bi-weekly to evaluate drug related tumor growth reduction utilizing standard methods. At the end of the study, tumors are flash-frozen at harvest and blood is collected for the determination of parent compound plasma exposure. The compound of Example 5 was tested essentially as described above.

PC3 = test: Cell assay (Alamar Blue, 72 hours) PC3; format: cell-based; settings: Homo sapiens, PC-3
Protocol: as §1

NCI-H460 = test: Cell assay (Alamar Blue, 72 hours) NCI-H460; format: cell-based; settings: Homo sapiens
Protocol: as §1

Oral bioavailability = format: in vivo; settings: rat, plasma; Sprague Dawley rats, 1 mg/kg (IV) or 10 mg/kg (oral gavage)
Protocol: The bioavailability of compounds of the present invention may be measured by methods known to the skilled artisan. For example a compound of Formula I is administered to Sprague Dawley rats at doses of 1 mg/kg (IV) or 10 mg/kg (oral gavage) in a conventional formulation. An oral formulation may include a suspension (0.25% PS80, 1% HEC, 0.05% Antifoam in water) using milled compound of Formula I. Plasma samples are obtained and concentrations of the compound of Formula I are measured. The compound of Example 57 was evaluated in a method substantially similar to that described above and found to have an oral bioavailability of >100%.

K562 = test: Cell assay (Alamar Blue, 72 hours) K562; format: cell-based; settings: Homo sapiens
Protocol: as §1

Rat 13762 = test: Cell assay (Alamar Blue, 72 hours) Rat 13762; format: cell-based
Protocol: as §1

PANC-1 = test: Cell assay (Alamar Blue, 72 hours) PANC-1; format: cell-based; settings: Homo sapiens
Protocol: as §1

A2780 = test: Cell assay (Alamar Blue, 72 hours) A2780; format: cell-based; settings: Homo sapiens
Protocol: as §1

IC50 (P70 S6 kinase (T412E)): 0.0103 µM | IC50 (p70 S6K): 1.92 µM
Structure (SMILES): Fc1ccc(-c2c[nH]c(C3CCN(c4ncnc5[nH]ccc45)CC3)n2)cc1C(F)(F)F [Example 7, 4-{4-[4-(4-Fluoro-3-trifluoromethyl-phenyl)-1H-imidazol-2-yl]-piperidin-1-yl}-7H-pyrrolo[2,3-d]pyrimidine hydrochloride]

IC50 (P70 S6 kinase (T412E)): 0.00758 µM | IC50 (p70 S6K): 47.7 µM
Structure (SMILES): Fc1ccc(-c2cnc(C3CCN(c4ncnc5[nH]cnc45)CC3)[nH]2)cc1C(F)(F)F [Example 8, 6-{4-[5-(4-Fluoro-3-trifluoromethyl-phenyl)-1H-imidazol-2-yl]-piperidin-1-yl}-9H-purine hydrochloride]

The next lines start with the compound.

Structure (SMILES): Cl.FC(F)(F)c1cccc(-c2c[nH]c(C3CCN(c4ncnc5[nH]ncc45)CC3)n2)c1 [Example 5, 4-{4-[4-(3-(Trifluoromethyl)-phenyl)-1H-imidazol-2-yl]-piperidin-1-yl}-1H-pyrazolo[3,4-d]pyrimidine hydrochloride]
IC50 (P70 S6 kinase (T412E)): 0.0294 µM | IC50 (A549): 22 µM | IC50 (U87MG): 14.6 µM | melting point: 306 °C | IC50 ([1]; 20 ng/mL VEGF, 12 day, cord area and angiogenesis index, read-out: IC50): 2.92 µM | IC50 (p70 S6K): 7.3 µM | Tumor Volume ([2]; 30 mg/kg PO (BID × 21), Day 8, mean of 10 animals): 36.5 mm^3 | Tumor Volume ([2]; 30 mg/kg PO (BID × 21), Day 13, mean of 10 animals): 58.7 mm^3 | Tumor Volume ([2]; 30 mg/kg PO (BID × 21), Day 16, mean of 10 animals): 90.9 mm^3 | Tumor Volume ([2]; 30 mg/kg PO (BID × 21), Day 20, mean of 10 animals): 134.6 mm^3 | Tumor Volume ([2]; 30 mg/kg PO (BID × 21), Day 23, mean of 10 animals): 192.7 mm^3 | Tumor Volume ([2]; 30 mg/kg PO (BID × 21), Day 27, mean of 10 animals): 296.3 mm^3 | Tumor Volume ([2]; 60 mg/kg PO (BID × 21), Day 8, mean of 10 animals ± standard deviation): 28.8 ± 2.6^b mm^3 | Tumor Volume ([2]; 60 mg/kg PO (BID × 21), Day 13, mean of 10 animals ± standard deviation): 42.1 ± 6.2*** mm^3 | Tumor Volume ([2]; 60 mg/kg PO (BID × 21), Day 16, mean of 10 animals ± standard deviation): 72.1 ± 11.8*** mm^3 | Tumor Volume ([2]; 60 mg/kg PO (BID × 21), Day 20, mean of 10 animals ± standard deviation): 139.0 ± 26.4*** mm^3 | Tumor Volume ([2]; 60 mg/kg PO (BID × 21), Day 23, mean of 10 animals ± standard deviation): 188.4 ± 25.9*** mm^3 | Tumor Volume ([2]; 60 mg/kg PO (BID × 21), Day 27, mean of 10 animals ± standard deviation): 280.0 ± 36.1*** mm^3 | Tumor Volume ([2]; 60 mg/kg PO (QD × 21), Day 8, mean of 10 animals ± standard deviation): 30.6 ± 3.4^b mm^3 | Tumor Volume ([2]; 60 mg/kg PO (QD × 21), Day 13, mean of 10 animals ± standard deviation): 57.8 ± 10.7** mm^3 | Tumor Volume ([2]; 60 mg/kg PO (QD × 21), Day 16, mean of 10 animals ± standard deviation): 85.0 ± 13.3*** mm^3 | Tumor Volume ([2]; 60 mg/kg PO (QD × 21), Day 20, mean of 10 animals ± standard deviation): 142.5 ± 18.4*** mm^3 | Tumor Volume ([2]; 60 mg/kg PO (QD × 21), Day 23, mean of 10 animals ± standard deviation): 194.5 ± 25.7*** mm^3 | Tumor Volume ([2]; 60 mg/kg PO (QD × 21), Day 27, mean of 10 animals ± standard deviation): 252.7 ± 34.4*** mm^3

Structure (SMILES): Cn1cc(-c2ccc(F)c(C(F)(F)F)c2)nc1C1CCN(c2ncnc3[nH]ncc23)CC1 [Example 10, 4-{4-[4-(4-Fluoro-3-trifluoromethyl-phenyl)-1-methyl-1H-imidazol-2-yl]-piperidin-1-yl}-1H-pyrazolo[3,4-d]pyrimidine hydrochloride]
IC50 (P70 S6 kinase (T412E)): 0.00379 µM | IC50 [1]: 4.78 µM | IC50 (p70 S6K): 1.97 µM

Structure (SMILES): Cc1ccc(S(=O)(=O)O)cc1.Cn1cc(-c2ccc(F)c(C(F)(F)F)c2)nc1C1CCN(c2ncnc3[nH]ncc23)CC1 [Example 57, 4-{4-[4-(4-Fluoro-3-trifluoromethyl-phenyl)-1-methyl-1H-imidazol-2-yl]-piperidin-1-yl}-1H-pyrazolo[3,4-d]pyrimidine p-toluenesulfonate]
IC50 (PC3): 31.9 µM | IC50 (NCI-H460): 24 µM | IC50 (P70 S6 kinase (T412E)): 0.0127 µM | IC50 (A549): 10.3 µM | IC50 (U87MG): 27.5 µM | bioavailability (Oral bioavailability): > 100% | IC50 (K562): 16.5 µM | IC50 (Rat 13762): 51.6 µM | IC50 (PANC-1): 30.2 µM | IC50 (A2780): 25.1 µM
